{
  "source": "patent US4416826A",
  "about": "“Peresters and use thereof” (priority 1980, dated 1983)",
  "key": {"[1]": {"experiment": "Photolysis of peresters and analysis of photoproducts", "format": "physicochemical", "details": "methanol compared with cyclohexane or with other peresters", "method": "The amount of perester used is in the range of 300-500 mg. The solutions are placed in Pyrex tubes, flushed with nitrogen for 10 min., and sealed with a rubber cap.\nAfter the irradiation, the yield of CO2 is measured by applying N2 pressure and trapping the CO2 with a Ba(OH)2 solution. The photolyzed solutions are evaporated (in the case of perester Ia treatment with excess diazomethane gives the best separation procedure) and again evaporated. Chromatography over 2 mm silica gel plates (E. Merck) with dichloromethane as the developing solvent separates the products. Extraction of the silica gel is done with ether. The identity of each sample is confirmed by GLC or high-pressure LC by comparison with authentic samples or by melting points of the solids.\nThis is shown by comparison with an authentic sample and combination of spectroscopic techniques. […] The same product is formed when 4-benzoylbenzoic acid is irradiated for 2 hours in CH3 OH in 26% yield. The structure of this secondary photoproduct is shown by independent synthesis (reduction of methyl 4-benzoylbenzoate by NaBH4). Among other secondary photoproducts found in small amounts is a mixture of pinacols. These are confirmed by synthesis of a similar pinacol mixture upon irradiation of methyl 4-benzoylbenzoate in isopropyl alcohol. […]"}, "[2]": {"experiment": "Thermal stability / thermal decomposition of peresters in the dark", "format": "physicochemical", "details": "110° C., chlorobenzene, dark; initial concn Ia 5.01, Ib 5.15, Ic 5.19 × 10^-2 M"}, "[3]": {"experiment": "Photodecomposition kinetics and quantum yields at 366 nm (benzophenone-benzhydrol actinometry)", "format": "physicochemical", "method": "Kinetic studies are carried out in degassed, sealed tubes by irradiating them with 366 nm light obtained from a Hanovia medium-pressure mercury lamp by combining the Corning Filters 0-52 and 7-60. The decompositions of the […] followed by the carbonyl IR absorption adjacent to the peroxide group (O=COO--) (1770 cm^-1). Benzophenone-benzhydrol redox actinometry are used throughout the study. In particular, a solution of […] (2 mL) in the appropriate solvent is placed in Pyrex tubes (12-mm diameter), degassed, and sealed under vacuum. Three cycles of freeze-thaw removes dissolved oxygen. The tubes are placed in a merry-go-round around a water-cooled light source, removed at different predetermined intervals, and kept frozen in liquid nitrogen in the dark until analysis is done. The estimation of […] done by quantitative IR, monitoring the carbonyl peak at 1770 cm^-1. […] Absorbance is measured with a 0.1 mm NaCl cell against solvent reference. With every run, two tubes containing actinometric solutions (benzophenone (0.1 M) and benzhydrol (0.05 M) in benzene are irradiated."}, "[4]": {"experiment": "Stern-Volmer triplet quenching with naphthalene", "format": "physicochemical", "details": "C6 H6", "from_the_text": "All the peresters give linear Stern-Volmer plots when naphthalene is used as triplet quencher."}, "[5]": {"experiment": "Triplet energy", "format": "physicochemical"}, "[6]": {"experiment": "Polymerization of methyl methacrylate", "details": "initiator 5 × 10^-2 M, [MMA] = 3.1 M, 25° C., benzene", "method": "Commercial methyl methacrylate monomer is washed three times with 2% NaOH solution to remove stabilizer. It is then washed with distilled water three times, dried with molecular sieves, and distilled under vacuum before use. Polymerization solutions are prepared in cylindrical tubes which are degassed and sealed. The amount of polymer formed is determined by precipitating the polymer with an excess of methanol, washing with methanol, and filtering through fine sintered crucibles (previously weighed) followed by drying in a vacuum oven. The irradiation condition is the same as that in the decomposition rate example hereinabove."}},
  "note": "“Also recorded” adds a separate entry of the source.",
  "data": [
    {"smiles": "Cc1cc(C)c(C(=O)c2ccc(C(=O)OOC(C)(C)C)cc2)c(C)c1", "note": "[Ib, Tert-butyl-4-(2',4',6'-trimethylbenzoyl)perbenzoate]", "values": [
      {"measurement": "rate of photodecomposition, qualitative", "setting": "[1]", "value": "the effect of methanol is to slow the rate of decomposition; also recorded: apparently slower rate of decomposition in methanol than either that of Ia or Ic"},
      {"measurement": "thermal 1st order dec rate × 10^5", "setting": "[2]", "value": 1.80, "unit": "M × 10^5 s^-1"},
      {"measurement": "thermal half-life t1/2", "setting": "[2]", "value": 10.7, "unit": "h"},
      {"measurement": "apparent first-order photodecomposition rate constant kd × 10^4", "setting": "[3]; C6 H6, 25° C., 366 nm, I = 6.56 × 10^17 quanta/min, 5.03-6.06 × 10^-2 M, given as kd × 10^4", "value": 1.34, "unit": "s^-1"},
      {"measurement": "quantum yield of decomposition (φ of dec)", "setting": "[3]; C6 H6, 366 nm, perester 5.03-6.06 × 10^-2 M", "value": 0.80},
      {"measurement": "quantum yield of decomposition (φ of dec)", "setting": "[3]; methanol, TBP 5.08 × 10^-2 M, Ia 5.38, Ib 6.15 × 10^-2 M", "value": 0.62},
      {"measurement": "quantum yield of decomposition (φ of dec)", "setting": "[3]; methanol, no TBP, Ia 5.38, Ib 6.15, Ic 5.10 × 10^-2 M", "value": 1.30},
      {"measurement": "quenching constant kq τ", "setting": "[4]", "value": 15},
      {"measurement": "triplet energy ET", "setting": "[5]", "value": 67.4, "unit": "kcal/mol"},
      {"measurement": "Rate of Polymerization (Rp) of MMA, Rp × 10^5", "setting": "[6]", "value": 8.31, "unit": "mL^-1 s^-1"}
    ]}
  ]
}
